Measurements taken from US20200017495A1, “NOVEL HETEROCYCLIC COMPOUNDS AND THEIR USE IN PREVENTING OR TREATING BACTERIAL INFECTIONS” (priority 2017, published 2020).
Like-named read-outs stand apart in the source and are kept apart here.

Tests used:
Assay in all cases: MIC of compounds alone and combined with antibacterials, broth microdilution (CLSI)
Type in all cases: cell-based
[1] = tested on: Enterobacter aerogenes (EAE) isolates; details: Klebsiella aerogenes, alone, read-out: MIC
Procedure, shortened: (§1)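 Broth microdilution in cation-adjusted Mueller-Hinton broth, inoculum 5.10^5 CFU/mL, 16-20 h at 35° C in ambient air, on genotyped isolates. Compound MIC, alone or with an antibacterial, taken visually as lowest concentration preventing growth; antibacterial MIC determined at each compound concentration.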

[2] = tested on: Escherichia coli (ECO) isolates; details: Escherichia coli, read-out: MIC
Procedure, shortened: as §1

[3] = tested on: Citrobacter freundii (CFR) isolates; details: Citrobacter freundii, read-out: MIC
Procedure, shortened: as §1

[4] = tested on: Providencia rettgeri (PRE) isolates; details: Providencia rettgeri, read-out: MIC
Procedure, shortened: as §1

[5] = tested on: Citrobacter koseri (CKR) isolates; details: Citrobacter koseri, alone, read-out: MIC
Procedure, shortened: as §1

[6] = tested on: Serratia marcescens (SMA) isolates; details: Serratia marcescens, read-out: MIC
Procedure, shortened: as §1

## O=C1N2CC(n3cccn3)=CC(C2)N1OC(F)(F)C(=O)[O-].[Li+] (centres unmarked) [AF3]
[1]; EAE 49469
  MIC: 8 µg/mL
[1]; EAE 200261
  MIC: 8 µg/mL
[1]; EAE UFR199
  MIC: 16 µg/mL
[1]; EAE UFR201
  MIC: 8 µg/mL
[1]; EAE UFR202
  MIC: 32 µg/mL
[1]; EAE UFR207
  MIC: 8 µg/mL
[1]; EAE UFR213
  MIC: 16 µg/mL
[2]; ECO 4133, alone
  MIC: 4 µg/mL
[2]; ECO 5302, alone
  MIC: 4 µg/mL
[2]; ECO 131119, alone
  MIC: 4 µg/mL
[2]; ECO 180070, alone
  MIC: 4 µg/mL
[2]; ECO 190314, alone
  MIC: 8 µg/mL
[2]; ECO 190317, alone
  MIC: 4 µg/mL
[2]; ECO 190457, alone
  MIC: 4 µg/mL
[2]; ECO 190549, alone
  MIC: 4 µg/mL
[2]; ECO 200159, alone
  MIC: 4 µg/mL
[2]; ECO 200259, alone
  MIC: 4 µg/mL
[2]; ECO 200344, alone
  MIC: 4 µg/mL
[2]; ECO 260096, alone
  MIC: 16 µg/mL
[2]; ECO 260304, alone
  MIC: 8 µg/mL
[2]; ECO 260508, alone
  MIC: 8 µg/mL
[2]; ECO (strain number on grid row 356, not shown), alone
  MIC: 8 µg/mL
[2]; ECO RGN238, alone
  MIC: 8 µg/mL
[2]; ECO UFR15, alone
  MIC: 8 µg/mL
[2]; ECO UFR16, alone
  MIC: 8 µg/mL
[2]; ECO UFR17, alone
  MIC: > 32 µg/mL
[2]; ECO UFR18, alone
  MIC: 8 µg/mL
[2]; ECO UFR19, alone
  MIC: 8 µg/mL
[2]; ECO UFR32, alone
  MIC: 8 µg/mL
[2]; ECO UFR39, alone
  MIC: 8 µg/mL
[2]; ECO UFR41, alone
  MIC: 8 µg/mL
[2]; ECO UFR45, alone
  MIC: 4 µg/mL
[2]; ECO UFR52, alone
  MIC: 8 µg/mL
[2]; ECO UFR61O, alone
  MIC: 16 µg/mL
[2]; ECO UFR62, alone
  MIC: 8 µg/mL
[2]; ECO UFR74, alone
  MIC: 8 µg/mL
[2]; ECO UFR86, alone
  MIC: 16 µg/mL
[2]; ECO UFR174, alone
  MIC: 4 µg/mL
[2]; ECO UFR175, alone
  MIC: 16 µg/mL
[2]; ECO UFR176, alone
  MIC: 8 µg/mL
[2]; ECO UFR184, alone
  MIC: 8 µg/mL
[2]; ECO UFR208, alone
  MIC: 16 µg/mL
[2]; ECO UFR209, alone
  MIC: 8 µg/mL
[2]; ECO UFR210, alone
  MIC: 4 µg/mL
[2]; ECO UFR211, alone
  MIC: 8 µg/mL
[2]; ECO UFR212, alone
  MIC: 8 µg/mL
[2]; ECO URF20, alone
  MIC: 8 µg/mL
[2]; strain ECO UFR177, compound alone
  MIC: 8 µg/mL
[2]; strain ECO UFR178, compound alone
  MIC: 16 µg/mL
[2]; strain ECO UFR179, compound alone
  MIC: 16 µg/mL
[2]; strain ECO UFR180, compound alone
  MIC: 8 µg/mL
[2]; strain ECO UFR181, compound alone
  MIC: 16 µg/mL
[2]; strain ECO UFR182, compound alone
  MIC: 16 µg/mL
[2]; strain ECO UFR183, compound alone
  MIC: 32 µg/mL
[2]; strain ECO UFR186, compound alone
  MIC: 8 µg/mL
[2]; strain ECO UFR187, compound alone
  MIC: 32 µg/mL
[2]; strain ECO UFR189, compound alone
  MIC: 8 µg/mL
[2]; strain ECO UFR190, compound alone
  MIC: 8 µg/mL
[2]; strain ECO UFR191, compound alone
  MIC: 8 µg/mL
[2]; strain ECO UFR204, compound alone
  MIC: 8 µg/mL
[2]; strain ECO UFR205, compound alone
  MIC: 8 µg/mL
[2]; strain ECO UFR206, compound alone
  MIC: 16 µg/mL
[2]; strain ECO UFR252GO, compound alone
  MIC: 8 µg/mL
[2]; strain ECO UFR255, compound alone
  MIC: 4 µg/mL
[3]; CFR UFR10, alone
  MIC: 16 µg/mL
[3]; CFR UFR11, alone
  MIC: > 32 µg/mL
[3]; CFR UFR37, alone
  MIC: 8 µg/mL
[3]; CFR UFR83, alone
  MIC: > 32 µg/mL
[3]; CFR UFR146, alone
  MIC: 32 µg/mL
[3]; CFR UFR248, alone
  MIC: 8 µg/mL
[3]; CFR UFR249, alone
  MIC: 8 µg/mL
[3]; CFR UFR250, alone
  MIC: 16 µg/mL
[3]; strain CFR UFR147, compound alone
  MIC: 4 µg/mL
[3]; strain CFR UFR148, compound alone
  MIC: 16 µg/mL
[3]; strain CFR UFR251, compound alone
  MIC: 8 µg/mL
[3]; strain CFR UFR252, compound alone
  MIC: 32 µg/mL
[3]; strain CFR UFR253, compound alone
  MIC: 32 µg/mL
[3]; strain CFR UFR254, compound alone
  MIC: 32 µg/mL
[4]; PRE UFR99, alone
  MIC: 16 µg/mL
[4]; strain PRE UFR96, compound alone
  MIC: 4 µg/mL
[4]; strain PRE UFR97, compound alone
  MIC: 32 µg/mL
[4]; strain PRE UFR236, compound alone
  MIC: 32 µg/mL
[5]; CKO ROU
  MIC: 32 µg/mL
[5]; CKO UFR149
  MIC: 16 µg/mL
[5]; CKO UFR150
  MIC: > 32 µg/mL
[6]; SMA UFR30, alone
  MIC: 8 µg/mL
[6]; SMA UFR134, alone
  MIC: 32 µg/mL
[6]; SMA UFR135, alone
  MIC: > 32 µg/mL
[6]; SMA UFR136, alone
  MIC: > 32 µg/mL
[6]; SMA UFR137, alone
  MIC: 32 µg/mL
[6]; SMA UFR138, alone
  MIC: 16 µg/mL
[6]; SMA UFR139, alone
  MIC: 32 µg/mL
[6]; SMA UFR141, alone
  MIC: 32 µg/mL
[6]; SMA UFR142, alone
  MIC: > 32 µg/mL
[6]; SMA UFR143, alone
  MIC: 32 µg/mL
[6]; SMA UFR239, alone
  MIC: 16 µg/mL
[6]; strain SMA UFR140, compound alone
  MIC: > 32 µg/mL
[6]; strain SMA UFR238, compound alone
  MIC: 32 µg/mL
